The source of these data is patent publication US10358436B2, “Kinase inhibitors and method of treating cancer” (University Health Network, priority 2010, dated 2019).

What is called inhibition is the change of the read-out against control, counted positive when it falls.

Counter-ions that a name gives are not always drawn.

One assay addresses PLK1 (Homo sapiens (Human), UniProt P53350). Put plainly: PLK1 inhibition assay (Z-Lyte). Format: biochemical.
In the next assay the target is PLK3 (Homo sapiens (Human), UniProt Q9H4B4). Put plainly: PLK3 inhibition assay (Z-Lyte). Type of assay: biochemical. On the procedure:
PLK3 inhibition was determined using the Z-Lyte assay kit from Invitrogen (cat #PV3802). The assay was performed using the recommended manufacturer's instructions with 100 μM ATP and 21 nM PLK3 (Invitrogen cat #PV3812). The % inhibition values were determined according to the manufacturer's directions and IC50 values were obtained using a non-linear 4 point logistic curve fit (XLfit4, IDBS).

The next assay deals with PLK2 (Homo sapiens (Human), UniProt Q9NYY3). Put plainly: PLK2 inhibition assay (Z-Lyte). Format: biochemical. The procedure:
PLK2 inhibition was determined using the Z-Lyte assay kit from Invitrogen (cat #PV3802). The assay was performed using the recommended manufacturer's instructions with 60 μM ATP and 133 nM PLK2 (Invitrogen cat #PV4204). The % inhibition values were determined according to the manufacturer's directions and IC50 values were obtained using a non-linear 4 point logistic curve fit (XLfit4, IDBS)

The test system of another assay is HUV-EC-C cells. As to the kind of experiment: In vitro angiogenesis assay (tube formation). The following applies: 4 hr. Type of assay: cell-based. The procedure:
Activity against these RTKs can result in antiangiogenic activity which is associated with slowed tumor growth and/or tumor regression. To measure the antiangiogenic effects of compounds of the invention, selected examples were tested in an angiogenesis assay as described below.
HUV-EC-C cells were obtained from the American Type Culture Collection (ATCC, CRL-1730), and were used at early passage for the assay. The in vitro Angiogenesis Assay Kit (Chemicon) was used according to the manufacturer's recommendation. An ice-cold mixture of ECMatrix was transferred into a precooled 96-well plate. After the matrix solution had solidified (>1 hr incubation at 37° C.), 8,000 cells were mixed with the appropriate inhibitor concentration (in 100 microliters EGM-2) and plated into each well. The clinical antiangiogenic, Sutent was used as a positive control in comparison to a compound of the invention, A13. After incubation at 37° C. for 4 hr, tube formation was inspected. Two methods, pattern recognition and branch point counting, were used to quantify the progression of angiogenesis and expressed as a percentage of the control tube count (FIGS. 1 and 2).

Another assay has as its target Arg (Homo sapiens (Human), UniProt P42684). Format: biochemical. As to conditions: read-out: % Inhibition @ 0.1 μM, Arg.
The target of another assay is FGFR2 (Homo sapiens (Human), UniProt P21802). Format: biochemical. As to conditions: read-out: % Inhibition @ 0.1 μM, FGFR2.
The target of the next assay is ARK5 (Homo sapiens (Human), UniProt O60285). Type of assay: biochemical. As to conditions: read-out: % Inhibition @ 0.1 μM, ARK5.
Assay [1] deals with T1, Aurora A (Homo sapiens (Human), UniProt O14965). Type of assay: biochemical. As to conditions: read-out: % Inhibition @ 0.1 μM, Aurora-A.
The target of a further assay is Ron (Homo sapiens (Human), UniProt Q04912). Type of assay: biochemical. The following applies: read-out: % Inhibition @ 0.1 μM, Ron.
In a further assay the target is FGFR2 (N549H) (Homo sapiens (Human), UniProt P21802, N549H). Type of assay: biochemical. The following applies: read-out: % Inhibition @ 0.1 μM, FGFR2 (N549H).
In the next assay the target is Bmx (Homo sapiens (Human), UniProt P51813). Type of assay: biochemical. As to conditions: read-out: % Inhibition @ 0.1 μM, Bmx.
The target of the next assay is Abl (Q252H) (Homo sapiens (Human), UniProt P00519, Q252H). Type of assay: biochemical. As to conditions: read-out: % Inhibition @ 0.1 μM, Abl (Q252H).
In a further assay the target is Itk (Homo sapiens (Human), UniProt Q08881). Type of assay: biochemical. As to conditions: read-out: % Inhibition @ 0.1 μM, Itk.
The target in the next assay is Abl (Y253F) (Homo sapiens (Human), UniProt P00519, Y253F). Type of assay: biochemical. As to conditions: read-out: % Inhibition @ 0.1 μM, Abl (Y253F).
In the next assay the target is Aurora B (Homo sapiens (Human), UniProt Q96GD4). As to conditions: read-out: % Inhibition @ 0.1 μM, Aurora-B.
For another assay, the target named is Tie2 (Y897S) (Homo sapiens (Human), UniProt Q02763, Y897S). Format: biochemical. The following applies: read-out: % Inhibition @ 0.1 μM, Tie2 (Y897S).
Assay [2] concerns the target T2, FLT3 (Homo sapiens (Human), UniProt P36888). The following applies: read-out: % Inhibition @ 0.1 μM, Flt3.
The next assay concerns the target Tie2 (Homo sapiens (Human), UniProt Q02763). Type of assay: biochemical. The following applies: read-out: % Inhibition @ 0.1 μM, Tie2.
For another assay, the target named is Abl (M351T) (Homo sapiens (Human), UniProt P00519, M351T). Type of assay: biochemical. The following applies: read-out: % Inhibition @ 0.1 μM, Abl (M351T).
For a further assay, the target named is EphA1 (Homo sapiens (Human), UniProt P21709). Type of assay: biochemical. The following applies: read-out: % Inhibition @ 0.1 μM, EphA1.
The target of the next assay is Ros (Homo sapiens (Human), UniProt P08922). Type of assay: biochemical. As to conditions: read-out: % Inhibition @ 0.1 μM, Ros.
A further assay has as its target Lck activated (Homo sapiens (Human), UniProt P06239). Format: biochemical. As to conditions: read-out: % Inhibition @ 0.1 μM, Lck activated.
The next assay addresses GCK (Homo sapiens (Human), UniProt Q12851). Format: biochemical. The following applies: read-out: % Inhibition @ 0.1 μM, GCK.
The next assay addresses ALK (Homo sapiens (Human), UniProt Q9UM73). Type of assay: biochemical. As to conditions: read-out: % Inhibition @ 0.1 μM, ALK.
For another assay, the target named is FGFR1 (V561M) (Homo sapiens (Human), UniProt P11362, V561M). Type of assay: biochemical. The following applies: read-out: % Inhibition @ 0.1 μM, FGFR1 (V561M).
For the next assay, the target named is FGFR1 (Homo sapiens (Human), UniProt P11362). Format: biochemical. The following applies: read-out: % Inhibition @ 0.1 μM, FGFR1.
For the next assay, the target named is Arg (m) (Mus musculus (Mouse), UniProt Q4JIM5). Format: biochemical. As to conditions: read-out: % Inhibition @ 0.1 μM, Arg (m).
Another assay addresses Tie2 (R849W) (Homo sapiens (Human), UniProt Q02763, R849W). Format: biochemical. The following applies: read-out: % Inhibition @ 0.1 μM, Tie2 (R849W).
Another assay addresses FGFR3 (Homo sapiens (Human), UniProt P22607). Format: biochemical. As to conditions: read-out: % Inhibition @ 0.1 μM, FGFR3.
The next assay addresses MuSK (Homo sapiens (Human), UniProt O15146). Type of assay: biochemical. The following applies: read-out: % Inhibition @ 0.1 μM, MuSK.
The target of another assay is Lck (Homo sapiens (Human), UniProt P06239). Format: biochemical. As to conditions: read-out: % Inhibition @ 0.1 μM, Lck.
The target of a further assay is IRAK1 (Homo sapiens (Human), UniProt P51617). Type of assay: biochemical. The following applies: read-out: % Inhibition @ 0.1 μM, IRAK1.
For another assay, the target named is EphB1 (Homo sapiens (Human), UniProt P54762). Type of assay: biochemical. The following applies: read-out: % Inhibition @ 0.1 μM, EphB1.
Another assay deals with Ret (V804L) (Homo sapiens (Human), UniProt P07949, V804L). Type of assay: biochemical. As to conditions: read-out: % Inhibition @ 0.1 μM, Ret (V804L).
A further assay deals with Abl (T315I) (Homo sapiens (Human), UniProt P00519, T315I). Type of assay: biochemical. As to conditions: read-out: % Inhibition @ 0.1 μM, Abl (T315I).
A further assay addresses Abl (m) (Mus musculus (Mouse), UniProt P00520). Type of assay: biochemical. As to conditions: read-out: % Inhibition @ 0.1 μM, Abl (m).
A further assay deals with Abl (H396P) (Homo sapiens (Human), UniProt P00519, H396P). Type of assay: biochemical. As to conditions: read-out: % Inhibition @ 0.1 μM, Abl (H396P).
Another assay addresses Abl (Homo sapiens (Human), UniProt P00519). Format: biochemical. The following applies: read-out: % Inhibition @ 0.1 μM, Abl.
The target in another assay is TRKA (Homo sapiens (Human), UniProt P04629). Format: biochemical. The following applies: read-out: % Inhibition @ 0.1 μM, TrkA.
Assay [3] has as its target T2, FLT3. As to the kind of experiment: Kinase selectivity assay (CEREP HTRF panel). Format: biochemical.
Protocol: (§1) The assays were performed using standard HTRF assay methods as documented by CEREP against the human orthologues of Ab1 kinase, Akt1/PKBa, AMPKa, BMX kinase (Etk), Brk, CaMK2a, CaMK4, CDC2/CDK1 (cycB), CHK1, CHK2, c-Met kinase, CSK, EphB4 kinase, ERK1, ERK2 (P42mapk), FGFR2 kinase, FGFR4 kinase, FLT-1 kinase (VEGFR1), FLT-3 kinase, Fyn kinase, IGF1R kinase, IRK (InsR), JNK 2, KDR kinase (VEGFR2), Lck kinase, Lyn kinase, MAPKAPK2, MEK1/MAP2K1, p38a kinase, p38d kinase, p38 g kinase, PDGFRb kinase, PDK1, PKA, PKCa, PKCb1, PKCb2, PKCg, Ret kinase, ROCK2, RSK2, Src kinase, Syk, and TRKA (Table 3).
The target in a further assay is KDR kinase (VEGFR2) (Homo sapiens (Human), UniProt P35968). Put plainly: Kinase selectivity assay (CEREP HTRF panel). Type of assay: biochemical. In general terms: TR-FRET usually uses a lanthanide donor and a delayed reading to cut background.
Assay [4] has as its target T1, Aurora A. Put plainly: Aurora A inhibition assay (Z-Lyte). Format: biochemical.
The next assay concerns AMPKalpha. As to the kind of experiment: Kinase selectivity assay (CEREP HTRF panel). Format: biochemical, human.

T1 sequence (O14965 whole entry): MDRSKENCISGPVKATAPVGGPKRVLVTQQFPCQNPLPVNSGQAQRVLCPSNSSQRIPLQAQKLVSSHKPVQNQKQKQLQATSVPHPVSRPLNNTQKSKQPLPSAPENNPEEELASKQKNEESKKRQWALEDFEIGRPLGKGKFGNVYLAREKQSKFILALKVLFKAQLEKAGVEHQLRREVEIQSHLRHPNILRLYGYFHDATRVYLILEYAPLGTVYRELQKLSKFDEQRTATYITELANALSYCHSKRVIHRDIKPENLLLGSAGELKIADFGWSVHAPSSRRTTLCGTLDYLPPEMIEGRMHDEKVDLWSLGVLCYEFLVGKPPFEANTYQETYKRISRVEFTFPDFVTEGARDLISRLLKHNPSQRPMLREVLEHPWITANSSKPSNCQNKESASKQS
T2 sequence (P36888 27-993): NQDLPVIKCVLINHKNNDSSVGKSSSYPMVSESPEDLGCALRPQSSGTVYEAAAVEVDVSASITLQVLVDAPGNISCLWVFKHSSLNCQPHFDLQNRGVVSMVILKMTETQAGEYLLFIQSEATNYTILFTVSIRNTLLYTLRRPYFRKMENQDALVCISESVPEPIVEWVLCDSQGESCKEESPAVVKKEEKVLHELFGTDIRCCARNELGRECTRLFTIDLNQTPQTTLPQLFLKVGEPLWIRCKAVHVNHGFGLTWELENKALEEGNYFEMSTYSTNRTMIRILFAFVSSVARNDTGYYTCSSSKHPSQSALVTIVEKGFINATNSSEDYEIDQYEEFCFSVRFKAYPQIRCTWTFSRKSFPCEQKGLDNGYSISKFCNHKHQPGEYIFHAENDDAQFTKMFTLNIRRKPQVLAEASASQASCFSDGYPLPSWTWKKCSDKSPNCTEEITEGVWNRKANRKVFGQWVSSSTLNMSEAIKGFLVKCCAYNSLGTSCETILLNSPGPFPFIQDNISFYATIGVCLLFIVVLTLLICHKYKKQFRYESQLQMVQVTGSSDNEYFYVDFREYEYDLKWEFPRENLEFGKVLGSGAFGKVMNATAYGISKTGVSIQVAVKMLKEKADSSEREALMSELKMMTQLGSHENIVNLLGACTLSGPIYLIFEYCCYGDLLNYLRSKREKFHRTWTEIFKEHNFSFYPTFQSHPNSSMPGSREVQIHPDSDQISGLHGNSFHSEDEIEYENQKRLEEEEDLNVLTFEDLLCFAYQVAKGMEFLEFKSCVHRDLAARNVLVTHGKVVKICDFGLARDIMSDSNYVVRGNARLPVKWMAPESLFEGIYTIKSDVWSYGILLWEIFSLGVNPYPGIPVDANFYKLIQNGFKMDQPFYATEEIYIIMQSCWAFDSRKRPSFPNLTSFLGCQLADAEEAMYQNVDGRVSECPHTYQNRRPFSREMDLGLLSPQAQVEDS
Chain of EphB1 (P54762 18-984): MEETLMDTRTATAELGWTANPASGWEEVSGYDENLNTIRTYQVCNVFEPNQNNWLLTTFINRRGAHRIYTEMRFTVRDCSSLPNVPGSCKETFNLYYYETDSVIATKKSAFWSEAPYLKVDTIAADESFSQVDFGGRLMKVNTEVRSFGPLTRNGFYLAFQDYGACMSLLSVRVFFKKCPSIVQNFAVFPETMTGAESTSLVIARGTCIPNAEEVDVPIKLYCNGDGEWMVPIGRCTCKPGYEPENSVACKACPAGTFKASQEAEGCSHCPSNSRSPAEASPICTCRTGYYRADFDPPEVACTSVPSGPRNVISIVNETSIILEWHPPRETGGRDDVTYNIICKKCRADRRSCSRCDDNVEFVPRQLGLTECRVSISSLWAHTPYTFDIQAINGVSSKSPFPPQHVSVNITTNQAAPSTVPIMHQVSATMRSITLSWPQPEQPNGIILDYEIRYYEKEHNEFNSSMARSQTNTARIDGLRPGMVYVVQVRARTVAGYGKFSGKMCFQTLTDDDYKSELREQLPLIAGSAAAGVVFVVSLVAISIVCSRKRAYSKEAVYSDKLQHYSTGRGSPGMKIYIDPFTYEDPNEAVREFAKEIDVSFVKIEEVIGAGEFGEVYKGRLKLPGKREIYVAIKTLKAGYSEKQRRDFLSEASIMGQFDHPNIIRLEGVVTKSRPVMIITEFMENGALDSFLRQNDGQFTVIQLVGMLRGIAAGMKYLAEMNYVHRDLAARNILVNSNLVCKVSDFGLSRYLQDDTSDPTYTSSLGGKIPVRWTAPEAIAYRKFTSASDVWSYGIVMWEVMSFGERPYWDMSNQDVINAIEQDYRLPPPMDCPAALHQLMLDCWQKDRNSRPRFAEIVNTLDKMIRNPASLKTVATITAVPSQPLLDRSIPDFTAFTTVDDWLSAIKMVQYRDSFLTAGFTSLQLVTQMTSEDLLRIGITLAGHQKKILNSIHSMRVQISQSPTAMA
Chain of Bmx (P51813 whole entry): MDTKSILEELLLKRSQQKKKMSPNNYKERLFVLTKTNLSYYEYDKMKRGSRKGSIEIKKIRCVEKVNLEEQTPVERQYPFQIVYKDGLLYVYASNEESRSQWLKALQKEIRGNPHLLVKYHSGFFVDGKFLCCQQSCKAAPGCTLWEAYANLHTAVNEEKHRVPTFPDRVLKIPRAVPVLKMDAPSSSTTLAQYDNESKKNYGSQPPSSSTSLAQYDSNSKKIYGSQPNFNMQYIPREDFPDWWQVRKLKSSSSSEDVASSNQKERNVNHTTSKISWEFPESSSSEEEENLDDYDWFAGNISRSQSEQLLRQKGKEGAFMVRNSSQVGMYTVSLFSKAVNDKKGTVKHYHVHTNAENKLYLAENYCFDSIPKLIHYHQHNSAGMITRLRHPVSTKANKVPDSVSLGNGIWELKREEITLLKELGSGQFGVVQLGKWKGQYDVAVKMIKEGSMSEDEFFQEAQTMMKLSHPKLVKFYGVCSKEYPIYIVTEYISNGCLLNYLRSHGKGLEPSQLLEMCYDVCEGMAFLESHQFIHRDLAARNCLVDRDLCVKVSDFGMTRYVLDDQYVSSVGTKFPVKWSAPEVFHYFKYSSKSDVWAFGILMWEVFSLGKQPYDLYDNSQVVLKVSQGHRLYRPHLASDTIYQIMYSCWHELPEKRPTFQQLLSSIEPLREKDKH
Chain of FGFR3 (P22607 23-806): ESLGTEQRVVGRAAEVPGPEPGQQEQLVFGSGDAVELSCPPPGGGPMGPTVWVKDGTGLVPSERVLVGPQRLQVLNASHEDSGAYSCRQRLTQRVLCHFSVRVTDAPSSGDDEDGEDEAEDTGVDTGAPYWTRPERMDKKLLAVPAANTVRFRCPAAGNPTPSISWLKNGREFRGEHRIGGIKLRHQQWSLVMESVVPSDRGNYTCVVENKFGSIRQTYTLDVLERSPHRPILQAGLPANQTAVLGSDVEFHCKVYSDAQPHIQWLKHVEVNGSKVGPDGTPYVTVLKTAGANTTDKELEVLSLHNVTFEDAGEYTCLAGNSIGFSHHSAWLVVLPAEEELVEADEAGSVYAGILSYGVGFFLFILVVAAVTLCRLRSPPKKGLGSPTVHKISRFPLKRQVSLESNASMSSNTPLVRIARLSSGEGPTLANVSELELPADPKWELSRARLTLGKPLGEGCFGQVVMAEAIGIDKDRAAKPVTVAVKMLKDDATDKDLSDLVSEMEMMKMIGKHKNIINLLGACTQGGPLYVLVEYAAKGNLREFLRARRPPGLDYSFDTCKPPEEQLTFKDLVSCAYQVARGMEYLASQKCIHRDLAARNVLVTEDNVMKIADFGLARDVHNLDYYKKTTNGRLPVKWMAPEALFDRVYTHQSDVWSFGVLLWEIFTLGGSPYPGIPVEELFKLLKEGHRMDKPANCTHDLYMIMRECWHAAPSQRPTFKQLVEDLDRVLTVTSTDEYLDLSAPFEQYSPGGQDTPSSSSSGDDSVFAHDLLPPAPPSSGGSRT
Chain of FGFR1 (V561M) (P11362 22-822 V561M): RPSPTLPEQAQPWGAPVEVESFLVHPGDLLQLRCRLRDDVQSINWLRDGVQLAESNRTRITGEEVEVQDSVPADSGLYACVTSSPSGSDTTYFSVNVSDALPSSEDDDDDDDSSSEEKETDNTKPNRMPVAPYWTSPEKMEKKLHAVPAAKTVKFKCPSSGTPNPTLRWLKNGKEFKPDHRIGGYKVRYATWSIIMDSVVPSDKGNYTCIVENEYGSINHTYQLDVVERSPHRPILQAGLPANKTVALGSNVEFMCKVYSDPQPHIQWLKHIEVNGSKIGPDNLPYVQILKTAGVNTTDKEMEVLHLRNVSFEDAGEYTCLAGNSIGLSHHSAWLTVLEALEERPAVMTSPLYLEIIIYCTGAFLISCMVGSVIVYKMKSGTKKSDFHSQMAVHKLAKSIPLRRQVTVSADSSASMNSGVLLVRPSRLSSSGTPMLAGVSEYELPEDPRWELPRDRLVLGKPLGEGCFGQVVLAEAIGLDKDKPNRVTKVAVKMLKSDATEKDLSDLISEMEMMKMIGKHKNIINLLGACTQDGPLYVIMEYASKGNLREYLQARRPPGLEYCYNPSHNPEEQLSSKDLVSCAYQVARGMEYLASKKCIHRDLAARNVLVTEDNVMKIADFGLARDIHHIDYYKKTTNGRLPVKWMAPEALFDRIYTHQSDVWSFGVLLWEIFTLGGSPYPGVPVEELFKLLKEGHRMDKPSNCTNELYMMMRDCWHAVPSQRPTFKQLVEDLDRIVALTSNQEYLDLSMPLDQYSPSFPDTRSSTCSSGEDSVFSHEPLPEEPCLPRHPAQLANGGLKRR
Chain of FGFR1 (P11362 22-822): as the sequence (P11362 22-822 V561M) above, with M540V counted along it
Chain of Aurora B (Q96GD4 whole entry): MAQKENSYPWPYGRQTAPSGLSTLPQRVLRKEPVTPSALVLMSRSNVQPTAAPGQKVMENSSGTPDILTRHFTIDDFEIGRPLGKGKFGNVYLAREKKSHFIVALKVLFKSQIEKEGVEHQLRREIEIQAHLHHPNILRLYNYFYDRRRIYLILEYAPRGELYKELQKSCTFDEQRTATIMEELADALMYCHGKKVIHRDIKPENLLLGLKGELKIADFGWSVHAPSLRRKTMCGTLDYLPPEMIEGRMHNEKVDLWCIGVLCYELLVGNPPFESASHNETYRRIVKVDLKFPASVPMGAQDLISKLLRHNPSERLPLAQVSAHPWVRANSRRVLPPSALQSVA
Protocol for KDR kinase (VEGFR2): as §1
Protocol for PLK1: PLK1 inhibition was determined using the Z-Lyte assay kit from Invitrogen (cat #PV3802). The assay was performed using the recommended manufacturer's instructions with 25 μM ATP and 8 nM PLK1 (Invitrogen cat #PV3501). The % inhibition values were determined according to the manufacturer's directions and IC50 values were obtained using a non-linear 4 point logistic curve fit (XLfit4, IDBS)

Consider `CN(C)Cc1ccc(/C=C/c2n[nH]c3cc([C@@H]4C[C@@]45C(=O)Nc4ccccc45)ccc23)cc1` (relative stereo) [Example A23, (1R*,2S*)-(E)-2-(3-(4-((dimethylamino)methyl)styryl)-1H-indazol-6-yl)spiro[cyclopropane-1,3′-indolin]-2′-one 2,2,2-trifluoroacetate], for which the inhibition at 10 µM against PLK1, against PLK3 and against PLK2 was no more than 50% each time. Also, the “anti-angiogenic effect (tube formation)” value with HUV-EC-C cells was “anti-agiogenic effects at submicromolar concentrations”.
Turning to `COc1ccc2c(c1)[C@]1(C[C@H]1c1ccc3c(-c4ccc(N5CCN(C)CC5)cc4)n[nH]c3c1)C(=O)N2` [Example A39, (1R,2S)-5′-methoxy-2-(3-(4-(4-methylpiperazin-1-yl)phenyl)-1H-indazol-6-yl)spiro[cyclopropane-1,3′-indolin]-2′-one hydrochloride], the inhibition at 0.1 µM on Arg was 61%; on FGFR2, 34%; at ARK5, 23%; on Aurora A [1], 70%; on Ron, 3%; on FGFR2 (N549H), 38%. Further, the inhibition at 0.1 µM at Bmx was determined as 35%; at Abl (Q252H), 59%; at Itk it was 9%; on Abl (Y253F) it was 43%; at Aurora B, 102%; on Tie2 (Y897S), 40%. Further, the inhibition at 0.1 µM is 2% at FLT3 [2]; 32% at Tie2; 77% on Abl (M351T); 17% on EphA1; 17% on Ros; 62% at Lck activated. Further, the inhibition at 0.1 µM is 16% on GCK; 20% at ALK; 18% at FGFR1 (V561M); 10% on FGFR1; 58% on Arg (m); 38% at Tie2 (R849W). In addition, the inhibition at 0.1 µM was 60% at FGFR3; 72% at MuSK; -3% on Lck; 49% on IRAK1; 15% on EphB1; 24% at Ret (V804L). For the same molecule, the inhibition at 0.1 µM is 90% on Abl (T315I); 82% on Abl (m); 77% on Abl (H396P); 68% on Abl; 93% on TRKA.
On to `COc1ccc2c(c1)[C@]1(C[C@H]1c1ccc3c(-c4ccc(N5CCN(C)CC5)nc4)n[nH]c3c1)C(=O)N2` (relative stereo) [Example A13, (1R*,2S*)-5′-Methoxy-2-(3-(6-(4-methylpiperazin-1-yl)pyridin-3-yl)-1H-indazol-6-yl)spiro[cyclopropane-1,3′-indolin]-2′-one], for which the values for the inhibition at 10 µM against FLT3 [3] and against KDR kinase (VEGFR2) were 86% and 6%, respectively. The “anti-angiogenic effect (tube formation)” value with HUV-EC-C cells is “anti-agiogenic effects at submicromolar concentrations”. Besides, on Aurora A [4], the inhibition at 1 µM is less than 50%. In addition, in the assay on AMPKalpha, the “% Inhibition @ 10 uM, AMPKalpha” value stood at 8%.
